Tests used:
p70 (NAMPT) = target: T1, p70 (NAMPT) (Homo sapiens, UniProt P43490); test: binding competition for photo-crosslinking of P7C3-S326 to p70 in H2122 cells; conditions: 0.3 μM P7C3-S326 plus 5 μM competitor, p70 band intensity, P7C3-S326 alone compared with plus competitor, vehicle 1.0
T1 construct: endogenous in cells; host or cells: H2122 lung cancer cells
How it was run: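 Competition for photo-crosslinking: P7C3 analogs (5 uM) were added alongside the 0.3 μM P7C3-S326 probe to H2122 cells for 2 hours before 15 minutes of 306 nm UV irradiation. In-gel fluorescence of the p70 band after click labeling was normalized to DMSO.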

Human NAMPT = target: T2, Human NAMPT (Homo sapiens, UniProt P43490); test: in vitro NAMPT coupled-enzyme assay (NADH at OD340 nm); format: biochemical; conditions: for activation of recombinant NAMPT enzyme: coupled assay NAMPT, NMNAT, ADH; for NAMPT activation: relative reaction rate normalized by the control reaction run prior to compound addition, vehicle 0.98
T2 construct: made in house; host or cells: E. coli
Procedure: FIGS. 7A-7C. […] (FIG. 7A) P7C3-A20 was incubated at indicated concentrations in a reaction coupled with three enzymes; NAMPT, NMNAT, and ADH (Experimental Procedures). NAMPT activity was recorded for the indicated period of time at OD340 nm by measuring NADH appearance, leading to the indicated concentration-time plot. […] (FIG. 7B) Analysis of the activities of thirty P7C3 analogs was performed to assess their effects on NAMPT enzymatic activity. The reaction rate was calculated as the slope of the concentration-time curve. Relative reaction rate was normalized by the control reaction run prior to compound addition. Data represents the mean of experimental duplicates. Scatter graphs were plotted to compare the ability of compounds to activate NAMPT relative to their ability to compete away P7C3-S326 crosslinking (top scatter plot), ability to protect cells from doxorubicin-mediated toxicity (middle scatter plot), or ability to facilitate NAD restoration in doxorubicin-treated cells (bottom scatter plot). […] Data are expressed as mean±SD of duplicate independent assays.
The enzymatic activity of recombinant NAMPT was monitored in a coupled assay wherein nicotinamide conversion to NMN was followed by sequential production of NAD (via the NMNAT enzyme) and NADH (via alcohol dehydrogenase). To minimize variation, a control reaction was run in each assay prior to compound addition.
Briefly, NAMPT first converted nicotinamide to NMN, which was followed by sequential production of NAD via nicotinamide mononucleotide adenylyl-transferase (NMNAT). NAD was then reduced to NADH by alcohol dehydrogenase (Sigma) using alcohol as the substrate. The resulting NADH was monitored by OD340 nm. […] 10 mM stocks of P7C3 analogs in DMSO were further diluted in ethanol prior to applying to the reaction. To minimize variation, a control reaction was run in each assay prior to compound addition.

[1] = system: NAD levels in doxorubicin-treated U2OS cells; test: NAD rebound assay in doxorubicin-treated cells (NAD/NADH Glo); format: cell-based; conditions: 0.5 μM doxorubicin 45 h
Procedure: FIG. 12. Five-point dose response curves (DRC) of all tested compounds in NAD rebound assay. […] Cellular NAD abundance was determined by NAD/NADH Glo assay kit.
Each chemical variant of P7C3 was co-incubated with doxorubicin on cultured U2OS cells at five doses (0.03 uM, 0.1 uM, 0.3 uM, 1 uM and 3 uM). After 45 hrs incubation, cells were assayed for intracellular levels of NAD (FIG. 12).
Assay was performed following the manufacturer's protocol. NAD/NADH-Glo reagent contains the NAD Cycling Enzyme that converts NAD+ to NADH. In the presence of NADH, the enzyme reductase reduces a proluciferin reductase substrate to form luciferin. Cells were grown in 96- or 384-well plates. 50 μl or 15 μl of NAD/NADH-Glo™ Detection Reagent were added to each well. The resulting luminescence signals were measured by Tecan plate reader or EnVison multimode plate reader (Perkin Elmer).

[2] = system: neurons in living animals; conditions: neurogenesis, MPTP model, concussive blast injury; cited from earlier work
U2OS cells = test: doxorubicin toxicity (dox:tox) protection assay, Cell Titer Glo cell survival; format: cell-based; conditions: cultured U2OS cells
Description: FIGS. 2A-2D. […] (FIG. 2A) Chemical structure of P7C3-S326. […] (FIG. 2C) Formulas used for calculating doxorubicin toxicity (dox:tox) protection activity. Protection activity is expressed by (Sinf−S0)/AC50 in the twelve-point dose response curve (DRC) corresponding to each compound, wherein both efficacy and potency of compounds were considered. Sinf represents the expected maximal protection. S0 is the baseline. […] In the photo-crosslinking assays, the p70 band intensity was quantified by Image J, and compared the sample of P7C3-S326 alone with that of P7C3-S326 plus competitor. Pearson correlation coefficient (r) and two tailed P value were determined by GraphPad Prism 6 and Spearman Rank Correlation (v1.0.1) software.
FIG. 10. Twelve-point dose response curves (DRC) of all tested compounds in doxorubicin toxicity protection assay. […] Cell viability was determined by Cell Titer Glo assay kit.
Cell survival assay was performed in 96-well plates using CellTiter-Glo Luminescent Cell Viability Assay kit (Promega) that measures cellular ATP content. The CellTiter-Glo reagent was diluted by adding 2 volumes of PBS containing 1% Triton X-100. 50 μl of diluted reagent was directly added to 100 μl of cell culture medium per well. Plates were incubated at room temperature for 10 minutes. Luminescence was recorded by Tecan […]luor Plus reader (Tecan). Cell survival was presented as the percentage of viable cells compared with untreated control, and mean±SD was calculated from duplicates. The dox:tox assay of P7C3 analogs was carried out in the HTS Core (University of Texas Southwestern Medical Center) using the EnVison multimode plate reader (Perkin Elmer).

[3] = system: hippocampal neurogenesis (Dentate Gyrus); test: in vivo neurogenesis assay (BrdU+ cells in dentate gyrus); design: species or system mice; conditions: for Neurogenesis # BrdU+ Cells (X10E06)/mm3 Dentate Gyrus: living mice, vehicle (DMSO) 7.3
How it was run: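 New hippocampal cells were tracked by daily BrdU injections and anti-BrdU staining of brain sections. Adult mice (two per pool of ten compounds) got week-long intracerebroventricular infusion by mini-pump, dosed for mid-nanomolar exposure.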

aged Fisher rats = conditions: cited from earlier work
[4] = mice and rats, concentrations well above those required to stimulate hippocampal neurogenesis; cited from earlier work
[5] = mice; IP, IV or oral routes; cited from earlier work
[6] = system: hippocampal neurogenesis (Dentate Gyrus); conditions: cited from earlier work

T2 sequence (P43490 whole entry): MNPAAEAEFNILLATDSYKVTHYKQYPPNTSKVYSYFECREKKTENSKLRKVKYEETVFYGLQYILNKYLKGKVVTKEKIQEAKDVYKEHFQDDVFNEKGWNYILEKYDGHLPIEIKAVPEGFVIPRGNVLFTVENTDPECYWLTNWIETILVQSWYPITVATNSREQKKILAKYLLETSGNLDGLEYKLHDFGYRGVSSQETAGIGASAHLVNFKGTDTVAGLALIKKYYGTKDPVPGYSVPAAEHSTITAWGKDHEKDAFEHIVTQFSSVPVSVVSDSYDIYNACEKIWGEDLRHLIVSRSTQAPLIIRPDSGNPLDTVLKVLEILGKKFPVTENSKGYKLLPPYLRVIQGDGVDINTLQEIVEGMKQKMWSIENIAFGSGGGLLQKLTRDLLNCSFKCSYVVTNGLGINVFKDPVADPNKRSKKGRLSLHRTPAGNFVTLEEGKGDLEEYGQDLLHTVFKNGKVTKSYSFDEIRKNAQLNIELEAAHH
T1 sequence (P43490 whole entry): as above

Row | SMILES | Binding competition (p70 (NAMPT)) | NAMPT activation (Human NAMPT) | Neurogenesis # BrdU+ Cells (X10E06)/mm3 Dentate Gyrus [3] | also measured
1 | COc1cccc(NCC(F)Cn2c3ccc(Br)cc3c3cc(Br)ccc32)n1 (racemic) [S243, N-(3-(3,6-dibromo-9H-carbazol-9-yl)-2-fluoropropyl)-6-methoxypyridin-2-amine] | 2.2 | 1.26 |  | activation of recombinant NAMPT enzyme (Human NAMPT): more active than the (+)P7C3-S243 enantiomer; rebound of NAD levels (NAD/NADH-Glo kit) [1]: NAD rebound
2 | COc1cccc(NC[C@@H](F)Cn2c3ccc(Br)cc3c3cc(Br)ccc32)n1 [(+)-S243] | 4.2 | 1.13 | 10.0 (X10E06)/mm3 | activity in the three in vivo assays of neuroprotection [2]: far less active; protection from doxorubicin-mediated toxicity (dox:tox assay) (U2OS cells): considerably less active
3 | COc1cccc(NC[C@H](F)Cn2c3ccc(Br)cc3c3cc(Br)ccc32)n1 [(−)-S243, (S)—N-(3-(3,6-Dibromo-9H-carbazol-9-yl)-2-fluoropropyl)-6-methoxypyridin-2-amine] | 4.8 | 1.33 | 18.1 (X10E06)/mm3 | activation of recombinant NAMPT enzyme (Human NAMPT): more active in stimulating NAMPT than the racemix mix; activity in the three in vivo assays of neuroprotection [2]: active; protection from doxorubicin-mediated toxicity (dox:tox assay) (U2OS cells): protective
4 | OC(CNc1ccccc1)Cn1c2ccc(Br)cc2c2cc(Br)ccc21 (centres unmarked) [P7C3] | 2.6 |  | 15.0 (X10E06)/mm3 | body weight relative to vehicle-treated controls (aged Fisher rats): maintained body weight; cognitive decline (aged Fisher rats): abrogation of cognitive decline; toxicity on prolonged administration [4]: not overtly toxic to rodents; half-life, volume of distribution and brain penetration [5]: favorable; enhancement in BrdU-positive hippocampal neurons ([6]; BrdU pulsed one day, then P7C3 for a month): 500%; enhanced level of BrdU-positive neurons ([6]; week-long dose of P7C3): two-fold
5 | Nc1ccc[n+](CC(O)Cn2c3ccc(Br)cc3c3cc(Br)ccc32)c1 (centres unmarked) [S6] | 1.4 |  | 8.4 (X10E06)/mm3 | rebound of NAD levels (NAD/NADH-Glo kit) [1]: no rebound at all
6 | O=S(=O)(CC(F)Cn1c2ccc(Br)cc2c2cc(Br)ccc21)c1ccc(O)cc1 (centres unmarked) [S103] | 1.9 | 0.97 | 7.0 (X10E06)/mm3 | 
7 | C#CCN(C)[C@H](C)Cc1ccccc1 [S117, Selegiline, reference compound] | 1.0 |  | 8.1 (X10E06)/mm3 | rebound of NAD levels (NAD/NADH-Glo kit) [1]: no rebound at all
8 | [N-]=[N+]=NCC(F)Cn1c2ccc(Br)cc2c2cc(Br)ccc21 (centres unmarked) [S189] | 3.6 | 1.06 | 6.9 (X10E06)/mm3 | 
9 | CN1C(=O)CN=C(c2ccc(Cl)cc2)c2cc(Cl)ccc21 [S203] | 3.9 | 1.00 | 10.8 (X10E06)/mm3 | 
10 | CC(C)(C)OC(=O)NCC(F)Cn1c2ccc(Br)cc2c2cc(Br)ccc21 (centres unmarked) [S208] | 1.2 | 1.16 | 13.5 (X10E06)/mm3 | 
11 | c1ccc2c(c1)CCc1ccccc1N2 [S212] | 1.0 | 1.04 | 10.3 (X10E06)/mm3 | 
12 | NC(=O)Cn1c2ccc(Br)cc2c2cc(Br)ccc21 [S213] | 1.1 | 1.00 | 6.5 (X10E06)/mm3 | 
13 | Cl.NCC(F)Cn1c2ccc(Br)cc2c2cc(Br)ccc21 (centres unmarked) [S217] | 2.6 | 0.89 | 12.3 (X10E06)/mm3 | 
14 | N#Cc1[nH]c2ccc(Br)cc2c1N [S222] | 1.3 | 1.02 | 15.1 (X10E06)/mm3 | 
15 | Cc1cc2c(cn1)[nH]c1ccc(Br)cc12 [S226] | 1.9 | 0.96 | 12.8 (X10E06)/mm3 | 
16 | O=C(Cn1c2ccc(Br)cc2c2cc(Br)ccc21)NS(=O)(=O)c1ccccc1 [S230] | 1.0 | 1.02 | 15.3 (X10E06)/mm3 | 
17 | CS(=O)(=O)NC(=O)Cn1c2ccc(Br)cc2c2cc(Br)ccc21 [S232] | 0.9 | 1.00 | 8.4 (X10E06)/mm3 | 
18 | Brc1ccc2c(c1)c1cc(Br)ccc1n2Cc1nnn[nH]1 [S233] | 0.9 | 0.88 | 7.3 (X10E06)/mm3 | 
19 | COC(=O)NC(=O)Cn1c2ccc(Br)cc2c2cc(Br)ccc21 [S234] | 1.0 | 0.93 | 17.8 (X10E06)/mm3 | 
20 | N#CCn1c2ccc(Br)cc2c2cc(Br)ccc21 [S235] | 1.8 | 0.97 | 11.7 (X10E06)/mm3 | 
21 | C#CCOc1ccc(C(=O)c2ccc(C(=O)NCC(F)Cn3c4ccc(Br)cc4c4cc(Br)ccc43)cc2)cc1 (centres unmarked) [S326, N-(3-(3,6-dibromo-9H-carbazol-9-yl)-2-fluoropropyl)-4-(4-(prop-2-yn-1-yloxy)benzoyl)benzamide] |  | 1.10 |  | protection from doxorubicin-mediated toxicity (dox:tox assay) (U2OS cells): active; activity in the in vivo neurogenesis assay ([3]; mouse, in vivo): active
